Measurements as given in US8338039B2, “Fuel cell” (Sony Corporation, priority 2009, dated 2012).

Columns and labels:
[1] = system: anode having the enzyme catalyst (glucose dehydrogenase, diaphorase); test: Current generated by the enzyme-catalyst anode of the fuel cell with additive in the fuel solution; assay type: biochemical
Experimental: Tests were conducted under the following conditions to investigate how the plant essential oil added to the fuel solution affects the fuel cell performance. The plant essential oils used for the test are nutmeg oil, lemongrass oil, and palmarosa oil. The concentration of each plant essential oil in the fuel solution is 1%. The control substance is N,N-diethyl-m-toluamide (DEET), which is an active ingredient used for most insect repellent sprays. The concentration of DEET in the fuel solution is 1%. Incidentally, the concentration of DEET in the formulation is required to be less than 12% according to the Japanese regulation. The fuel solution is a pH buffer solution composed of 2.0 M imidazole/H2SO4, 0.4 M glucose, and ethanol, pH 7.0. […] The plant essential oil is added to the fuel solution and suspended therein by stirring immediately before current measurement. The electrode is one which is made of carbon fiber (1 mm thick). The electrode is coated with an immobilizing agent which is composed of the following ingredients. A mixture of 1.0 PLL and 0.0625 glutaraldehyde, 75.2 μL A solution of glucose dehydrogenase (150 mg/mL), 12.4 μL A solution of diaphorase (150 mg/mL), 1.6 μL A solution of NADH (40.96 mg/mL), 4 μL A solution of AQ2S (60 mM), 37.4 μL An enzyme produced by Amano Enzyme Co., Ltd. is immobilized on the above-mentioned immobilizing agent. […]

[2] = Dissolution of additive in the fuel solution; assay type: physicochemical; conditions: fuel solution containing 1% ethanol; 1% DEET
Experimental: The fuel solution is a pH buffer solution composed of 2.0 M imidazole/H2SO4, 0.4 M glucose, and ethanol, pH 7.0. […] The plant essential oil is added to the fuel solution and suspended therein by stirring immediately before current measurement.

In the case of `CCN(CC)C(=O)c1cccc(C)c1` [DEET, N,N-diethyl-m-toluamide], the “current value produced by the enzymatic catalyst at the anode, compared with fuel solution not incorporated with the additive” value ([1]; 1% additive in fuel solution (2.0 M imidazole/H2SO4, 0.4 M glucose, ethanol, pH 7.0), carbon fiber anode) is reported as “lower current value”, the “effect on the fuel cell performance” value ([1]; added to the fuel solution at 1%) is reported as “deteriorates the fuel cell performance” and the “solubility in the fuel solution” value [2] is reported as “dissolves 1% DEET completely”.
